Reference: ChEMBL document CHEMBL4699538 (Bioorg Med Chem Lett, 2020)

How the values were obtained:
[1] = molecular target: Dihydroorotate dehydrogenase (quinone), mitochondrial (Homo sapiens, UniProt Q02127); experiment: Inhibition of human DHODH
MOLM-13 = experiment: Antiproliferative activity against human MOLM-13 cells; format: functional, cell-based
[2] = Metabolic stability in mouse liver microsomes assessed as half life; format: ADME, Microsome
[3] = Metabolic stability in human liver microsomes assessed as half life; format: ADME, Microsome
[4] = Clearance in C57 mouse at 10 mg/kg, po or 2 mg/kg, iv; format: ADME, organism-based; conditions: in vivo
[5] = Plasma protein binding in mouse assessed as unbound fraction; format: ADME, cell-free
[6] = Volume of distribution at steady state in C57 mouse at 10 mg/kg, po or 2 mg/kg, iv; format: ADME, organism-based; conditions: in vivo, read-out: Vdss
[7] = Oral bioavailability in C57 mouse at 10 mg/kg; format: ADME, organism-based; conditions: in vivo
[8] = Plasma protein binding in human assessed as unbound fraction; format: ADME, cell-free
[9] = Half life in C57 mouse at 10 mg/kg, po or 2 mg/kg, iv; format: ADME, organism-based; conditions: in vivo

Chain of Dihydroorotate dehydrogenase (quinone), mitochondrial (Q02127 whole entry): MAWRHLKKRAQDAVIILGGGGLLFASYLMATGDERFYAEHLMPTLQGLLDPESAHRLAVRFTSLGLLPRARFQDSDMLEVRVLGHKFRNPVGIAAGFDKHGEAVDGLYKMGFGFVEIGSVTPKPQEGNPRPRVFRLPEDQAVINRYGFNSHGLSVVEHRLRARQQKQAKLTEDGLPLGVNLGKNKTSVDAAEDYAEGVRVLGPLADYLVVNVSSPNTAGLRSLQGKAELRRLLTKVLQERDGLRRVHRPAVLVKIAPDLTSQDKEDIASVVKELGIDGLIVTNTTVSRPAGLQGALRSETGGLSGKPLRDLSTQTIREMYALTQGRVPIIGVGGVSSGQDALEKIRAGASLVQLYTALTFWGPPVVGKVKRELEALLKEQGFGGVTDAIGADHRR

Compound | IC50 [1] [nM] | IC50 (MOLM-13; Homo sapiens, MOLM-13) [nM] | half-life [2] [h] | half-life [3] [h] | also measured
Cc1c(-c2ccc(-c3ccccc3F)cc2)nc2ccc(F)cc2c1C(=O)C(F)(F)F | 74 | > 3000 |  |  | 
Cc1c(-c2ccc(-c3ccccc3F)cc2)nc2ccc(F)cc2c1C(=O)O [BREQUINAR] |  |  | > 3 | > 3 | clearance [4]: 0.2 mL/min/kg; Fu [5]: 0.73%; Vd [6]: 0.3 L/kg; bioavailability [7]: 72%; Fu [8]: 0.39%; IC50 (MOLM-13; molm-13): 60 nM
Cc1c(-c2ccc(-c3ccccc3F)cc2)nc2ccc(F)cc2c1C(=O)NO | 1.4 | 23 | 0.6 | > 3 | 
Cc1c(-c2ccc(-c3ccccc3F)cc2)nc2ccc(F)cc2c1C(=O)NS(C)(=O)=O | 32 | 300 |  |  | 
Cc1c(-c2ccc(-c3ccccc3F)cc2)nc2ccc(F)cc2c1-c1noc(=O)[nH]1 | 1560 | > 3000 |  |  | 
Cc1c(-c2ccc(-c3ccccc3F)cc2)nc2ccc(F)cc2c1-c1nnn[nH]1 | 223 | > 3000 |  |  | 
Cc1c(-c2ccc(-c3ccccc3F)cc2)nc2ccc(F)cc2c1C(O)C(F)(F)F (stereo not given) | 808 | 640 |  |  | 

Continued, in another order:

IC50 [1] [nM] | IC50 (MOLM-13; Homo sapiens, MOLM-13) [nM] | half-life [2] [h] | half-life [3] [h] | Compound | also measured
4.2 | 33 | 0.3 | > 3 | CCONC(=O)c1c(C)c(-c2ccc(-c3ccccc3F)cc2)nc2ccc(F)cc12 | 
1250 | 403 |  |  | COC(=O)NC(=O)c1c(C)c(-c2ccc(-c3ccccc3F)cc2)nc2ccc(F)cc12 | 
160 | > 3000 |  |  | Cc1c(-c2ccc(-c3ccccc3F)cc2)nc2ccc(F)cc2c1C(F)F | 
7.7 | 5100 |  |  | Cc1c(-c2ccc(-c3ccccc3F)cc2)nc2ccc(F)cc2c1C(=O)N(C)O | 
47 | 128 | 1.08 | 2.25 | Cc1c(-c2ccc(-c3ccccc3F)cc2)nc2ccc(F)cc2c1C(N)=O | 
166 | 700 |  |  | Cc1c(-c2ccc(-c3ccccc3F)cc2)nc2ccc(F)cc2c1CO | 
0.12 | 9 | 0.95 | > 3 | CONC(=O)c1c(C)c(-c2ccc(-c3ccccc3F)cc2)nc2ccc(F)cc12 | clearance [4]: 5.09 mL/min/kg; half-life [9]: 2.35 h; Fu [5]: 0.77%; Vd [6]: 1.15 L/kg; bioavailability [7]: 108%; Fu [8]: 0.55%
116 | > 3000 |  |  | Cc1c(-c2ccc(-c3ccccc3F)cc2)nc2ccc(F)cc2c1C(=O)NC#N | 
